From US10028999B2, “PAR-1 based therapeutic conjugates and uses thereof” (TEL HASHOMER MEDICAL RESEARCH INFRASTRUCTURE AND SERVICES …, priority 2014, dated 2018)
Peptide text beside a SMILES is read from it. * marks the point of attachment. Tos = Cc1ccc(S(=O)(=O)*)cc1; CH2Cl = ClC*

Tests used:
[1] = tested on: CNS-1 glioma cells
Protocol: The thrombin-like activity of CNS-1 cells was initially measured in control cells and in cells treated with (i) the short peptide conjugate (tosyl-DPR-CK, corresponding to a conjugate that includes the peptide termed 3AA) or (ii) the long conjugate (tosyl-NATLDPR-CK, corresponding to a conjugate that includes the peptide termed 7AA (SEQ ID No. 4)) at high ([…]) and low (100 nM) concentrations (FIG. 16).

[2] = tested on: CNS-1 glioma cells; assay: Proliferation (XTT) of CNS-1 glioma cells; assay type: cell-based, rat; settings: CNS-1 cells; for inhibition of cell proliferation: XTT, 48 hours
Protocol: (§1) Several peptide moieties (Table 1) according to the present invention were synthesized. Proliferation was measured, by means of XTT, in C6 and CNS-1 glioma cell-lines (FIGS. 8A and 8B, respectively). In C6 cells, proliferation was measured before (black bar) and after cells were treated with the PAR-1 antagonist SCH79797 at various doses ranging from 10 nM to 10 μM (grey bars; FIG. 8A).
In another set of experiments, CNS-1 glioma cell-line was treated with increased doses of TLCK (125 nM to 14 mM), for 48 hours (FIG. 9; grey bars). Proliferation was measured by means of XTT in comparison to non-treated cells (control; black bar).
Initially, CNS-1 glioma cells were treated with increased concentrations of two peptide conjugates: a short conjugate of the formula tosyl-DPR-CK (comprising 3 amino acids, 3AA) or a long conjugate of the formula tosyl-NATLDPR-CK (comprising 7 amino acids, 7AA; SEQ ID NO: 4) in concentrations of 100 pM, 1 nM and 10 nM, for 48 hours (FIG. 10). FIG. 10 provides the results of an XTT assay used for assessing cell proliferation.
The effect of the peptide conjugate alone, or in combination with PAR-1 antagonist, SCH79797, on cell proliferation was determined in comparison to untreated cells or cells treated with PAR-1 antagonist (FIG. 13).

[3] = tested on: blood coagulation (prothrombin time); assay: Prothrombin time test; assay type: biochemical; settings: for PT: without conjugate 11.5; for Potency score in PT test: most potent (1) to least potent (5)
[4] = tested on: blood coagulation (aPTT); assay: Activated partial thromboplastin time test; assay type: biochemical; settings: for aPTT: without conjugate 30.5; for Potency score in aPTT test: most potent (1) to least potent (5)
[5] = tested on: thrombin; assay: Thrombin time test; assay type: biochemical; settings: for TT: without conjugate 13.4; for Potency score in TT test: most potent (1) to least potent (5)
[6] = tested on: Factor Xa; assay: Factor Xa activity test; assay type: biochemical; settings: for Fxa: without conjugate 0.11; for Potency score in Factor Xa activity test: most potent (1) to least potent (5)
[7] = target: Protein C (Homo sapiens, UniProt P04070); assay: Protein C activity test; assay type: biochemical; settings: for aPC: without conjugate 109; for Potency score in Protein C activity test: most potent (1) to least potent (5)
[8] = tested on: blood coagulation
[9] = in vivo; settings: ip, 2 micromolar, in 100 ul
Protocol: The concentrations of the peptide conjugates in the plasma of animals treated therewith was evaluated by a unique method that was based on the ability of the peptide conjugates to inhibit thrombin activity. […] The essay initiated by obtaining blood samples from animals which received the peptide conjugates (100 microliter containing 2 micromolar, i.p.). The blood samples, after being maintained in citrate buffered sample tubes, were subjected to centrifugation for plasma separation. Samples were then filtered through a membrane with a 10 kD molecular weight cutoff which excluded all blood coagulation factors (by addition of calcium to neutralize the anticoagulation effect of the citrate buffer). Coagulation factor-free plasma samples were then applied to the thrombin activity assay.
The resulting thrombin activities in each plasma sample either diluted (×10) or as is were given in arbitrary units (FIGS. 18-18D, diagonal shading and dotted bars, respectively). However, the actual concentration were deduced by comparing the activities to calibrated activities generated with known concentrations of the conjugate peptides. The calibration data included the following thrombin activities: activity in a sample of thrombin in the absence of plasma and conjugates (black bars, FIGS. 18A-18D); and activity in four samples of thrombin and known concentrations of the peptide conjugates (10 nM, 100 nM, 1 micromolar and 10 micromolar; bars 2nd to 5th from right in FIGS. 18A-18D).

[10] = tested on: EAN rats (experimental autoimmune neuritis); assay: Electrophysiological tests in EAN rats treated with thrombin inhibitors; assay type: in vivo, rat
Protocol: (§2) Electrophysiological tests of the sciatic nerves were performed on day 32 PI (post-immunization/induction) in EAN model (FIGS. 3A-C) and 8 weeks after STZ induction (FIG. 4A-C). Rats were anesthetized with Phenobarbital (IP, 24 mg/kg). Two pairs of monopolar needle electrodes were used to stimulate the tail nerves. Stimulating cathodes were inserted to a depth of 4-5 mm at the base of the tail and 4 cm distally. An anode at each location was inserted into the skin (4-5 mm depth) 1 cm proximal to the cathode. A ground electrode was placed between the distal stimulating electrode and the active recording electrode. Electromyography (EMG) recordings of responses of the tail muscles to proximal and distal stimuli, made by a pair of ring electrodes coated with electrode jelly and placed 1 cm distally to the distal stimulating electrode, were collected. The tail skin was wiped with alcohol prior to placing the electrodes. […] Both proximal and distal latencies were measured using time intervals from the stimulus artifact to the first deflection from baseline. To calculate the motor nerve conduction velocity (MNCV), the distance between stimulating cathodes was divided by the latency difference. Amplitudes of the compound muscle action potential (CMAP) from both proximal and distal stimulations were measured from the negative to the positive peaks. The reduction of the proximal CMAP compared with that of the distal CMAP was calculated by the equation: [(distal CMAP-proximal CMAP)/distalCMAP×100] and was defined as the R ratio. Temperature differences were minimized by conducting the study as soon as the anesthesia had taken effect and by warming the tail with a heating lamp.
(§3) FIGS. 3 and 4 each include 3 graphs summarizing the results from electrophysiological tests of treated rats, as follows: distal latency (3A, 4A) referring to the time, in milliseconds, between distal stimulation to recording; conduction velocity (3B, 4B) referring to the distance over time, in meters/seconds; and amplitude (3C, 4C) referring to the size of the response as measured in millivolts.

[11] = tested on: STZ-induced diabetic rats; assay: Electrophysiological tests in STZ-induced diabetic rats treated with thrombin inhibitors; assay type: in vivo, rat; settings: STZ rats
Protocol: as §2, §3

[12] = tested on: C6 glioma cells; assay: Thrombin-like activity in C6 glioma cell line; assay type: cell-based; settings: four hours after treatment
[13] = tested on: STZ-induced diabetic BALB/c mice; assay: Sciatic nerve conduction velocity in STZ diabetic neuropathy mice; assay type: in vivo; settings: daily 100 microliter of 10 nM, p=0.016, listed as T5AACK
Protocol: The conduction velocity of sciatic nerves derived from an animal model of diabetes (streptozotocine (STZ)-induced diabetes; FIG. 20) was measured in mice treated daily with sham (STZ), or with the active drug TLDPR (peptide 5AA; SEQ ID NO: 2) nested between N alpha-tosyl and chloromethyl ketone, namely […] (termed hereinafter T5AACK) injected in 100 microliter of 10 nM, 100 nM and 1 micromolar.
Conduction velocities in the sciatic nerves of the mice were assessed by standard electrophysiology nerve conduction methods by a blind assessor. The nerve conduction studies were carried out one month after the induction of diabetes. A group of normal mice without diabetes served as controls. All STZ treated mice developed severe diabetes.
Streptozotocyn (STZ) was dissolved in citrate buffer pH 4.5 and a single dose of STZ was administered IP (140 mg/kg) to 12 weeks BALB/c mice. […] Mice developed diabetic neuropathy developed within 4 weeks after the induction of diabetes. […]
Conduction velocities in the sciatic nerves of the mice were assessed by standard electrophysiology nerve conduction methods by a blind assessor (FIG. 19).

[14] = tested on: C6 glioma cells; assay: Proliferation (XTT) of C6 glioma cells; assay type: cell-based; settings: 10 nM to 10 μM
Protocol: as §1

Protein C, sequence (P04070 212-461 limits assumed): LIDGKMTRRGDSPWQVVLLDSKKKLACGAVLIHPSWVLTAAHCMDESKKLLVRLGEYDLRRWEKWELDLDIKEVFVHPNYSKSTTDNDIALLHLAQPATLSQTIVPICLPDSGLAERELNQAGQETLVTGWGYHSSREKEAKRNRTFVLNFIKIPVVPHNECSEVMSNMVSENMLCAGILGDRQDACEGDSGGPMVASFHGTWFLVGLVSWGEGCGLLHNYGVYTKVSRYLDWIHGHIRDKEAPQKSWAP
Protein C, sequence (P04070 43-197 partner limits assumed): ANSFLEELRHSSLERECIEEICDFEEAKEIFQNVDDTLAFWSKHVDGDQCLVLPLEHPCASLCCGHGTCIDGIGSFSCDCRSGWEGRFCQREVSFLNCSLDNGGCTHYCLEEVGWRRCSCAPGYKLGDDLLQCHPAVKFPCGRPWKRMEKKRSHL

Structure (SMILES)	IC50 [1] [nM]	PT ([3]; 10 nM) [s]	PT ([3]; 1 μM) [s]	Potency score in PT test ([3]; 100 μM)	PT ([3]; 100 μM)	aPTT ([4]; 10 nM) [s]	aPTT ([4]; 1 μM) [s]	Potency score in aPTT test ([4]; 100 μM)	aPTT ([4]; 100 μM) [s]	TT ([5]; 10 nM) [s]	Potency score in TT test ([5]; 1 μM)	TT ([5]; 1 μM) [s]	TT ([5]; 100 μM) [s]	Potency score in Factor Xa activity test ([6]; 100 μM)	Fxa ([6]; 100 μM)	aPC ([7]; 1 μM)	Potency score in Protein C activity test ([7]; 100 μM)	aPC ([7]; 100 μM)	level at time molar [9] [nM]	further results
Cc1ccc(S(=O)(=O)N[C@@H](CC(=O)O)C(=O)N2CCC[C@H]2C(=O)N[C@@H](CCCNC(=N)N)C(=O)CCl)cc1 [3AA, tosyl-DPR-CK] (Tos-Asp-Pro-Arg-CH2Cl)	0.007	11.5	12.3	1	FAILED	30	38.1	1	150	14.1	1	> 80	> 80	1	FAILED	107	1	FAILED	~1000	inhibition of cell proliferation ([2]; 1 nM): significant inhibition of cell proliferation; inhibition of cell proliferation ([2]; 10 nM): higher inhibition; Fxa ([6]; 1 μM): 0.21; effect on coagulation, overall [8]: significantly more deleterious effects on coagulation
N=C(N)c1ccc(CC(NC(=O)CNS(=O)(=O)c2ccc3ccccc3c2)C(=O)N2CCCCC2)cc1 (racemic) [NAPAP, Na-(2-naphthyl-sulphonyl-glycyl)-DL-p-amidinophenylalanyl-piperidine]	–	–	–	–	–	–	–	–	–	–	–	–	–	–	–	–	–	–	–	conduction velocity ([10]; daily treatment for 2 weeks, TLCK 4.4 mg/kg, NAPAP 120 μM/kg, untreated EAN 23.6±1.2): 36.05±3.57 m/sec; proximal amplitude ([10]; untreated EAN 0.76±0.33, non-significant): 0.83±0.4 millivolts; latency ([10]; untreated EAN 1.43±0.023, control 0.54±0.03): 1.32 ± 0.33 ms; conduction velocity ([11]; daily treatment for 2 weeks, TLCK 4.4 mg/kg, NAPAP 120 μM/kg, untreated STZ 28.5±2.8): 40.1±2.7 m/sec; proximal amplitude ([11]; untreated STZ 0.48±0.13, insignificant): 1.68±0.64 millivolts; latency ([11]; untreated STZ 1.93±0.139, control 1.29±0.057): 1.676 ± 0.132 ms; thrombin-like activity [12]: inhibited
Cc1ccc(S(=O)(=O)N[C@H](C(=O)N[C@@H](CC(C)C)C(=O)N[C@@H](CC(=O)O)C(=O)N2CCC[C@H]2C(=O)N[C@@H](CCCNC(=N)N)C(=O)CCl)[C@@H](C)O)cc1 [5AA, tosyl-TLDPR-CK] (Tos-TLDPR-CH2Cl)	0.7	12.1	11.5	4	14.5 s	30.1	30.5	4	63.9	13.8	4	17.8	> 80	4	0.13	109	3	20	< 10	sciatic nerve conduction velocity relative to sham treated mice [13]: followed a similar trend
CC(C)c1ccc(Cn2ccc3c4c(N)nc(NC5CC5)nc4ccc32)cc1.Cl.Cl [SCH79797, N3-Cyclopropyl-7-[[4-(1-methylethyl)phenyl]methyl]-7H-pyrrolo[3,2-f]quinazoline-1,3-diamine dihydrochloride, reference compound]	–	–	–	–	–	–	–	–	–	–	–	–	–	–	–	–	–	–	–	proliferation [14]: inhibited proliferation in a dose-dependent manner; inhibition at 1 µM ([2]; Rattus norvegicus, Glioma cell, 1 μM, alone): 25%
